Test results reported in patent US5043332A, “Novel 11β-substituted -19-nor-steriods” (priority 1981, dated 1991).

Key:
[1] = target: T1, Androgen receptor of prostate of rats (Rattus norvegicus, UniProt P15207); assay: Androgen receptor binding (displacement of tritiated product P); conditions: for affinity for androgen receptors (in words): conclusion
T1 construct: The prostates were removed, weighed and homogenized at 0° C; from tissue; host or cells: rat prostate, 105,000 g supernatant (castrated male Sprague-Dawley rats)
T1 sequence (P15207 1-902): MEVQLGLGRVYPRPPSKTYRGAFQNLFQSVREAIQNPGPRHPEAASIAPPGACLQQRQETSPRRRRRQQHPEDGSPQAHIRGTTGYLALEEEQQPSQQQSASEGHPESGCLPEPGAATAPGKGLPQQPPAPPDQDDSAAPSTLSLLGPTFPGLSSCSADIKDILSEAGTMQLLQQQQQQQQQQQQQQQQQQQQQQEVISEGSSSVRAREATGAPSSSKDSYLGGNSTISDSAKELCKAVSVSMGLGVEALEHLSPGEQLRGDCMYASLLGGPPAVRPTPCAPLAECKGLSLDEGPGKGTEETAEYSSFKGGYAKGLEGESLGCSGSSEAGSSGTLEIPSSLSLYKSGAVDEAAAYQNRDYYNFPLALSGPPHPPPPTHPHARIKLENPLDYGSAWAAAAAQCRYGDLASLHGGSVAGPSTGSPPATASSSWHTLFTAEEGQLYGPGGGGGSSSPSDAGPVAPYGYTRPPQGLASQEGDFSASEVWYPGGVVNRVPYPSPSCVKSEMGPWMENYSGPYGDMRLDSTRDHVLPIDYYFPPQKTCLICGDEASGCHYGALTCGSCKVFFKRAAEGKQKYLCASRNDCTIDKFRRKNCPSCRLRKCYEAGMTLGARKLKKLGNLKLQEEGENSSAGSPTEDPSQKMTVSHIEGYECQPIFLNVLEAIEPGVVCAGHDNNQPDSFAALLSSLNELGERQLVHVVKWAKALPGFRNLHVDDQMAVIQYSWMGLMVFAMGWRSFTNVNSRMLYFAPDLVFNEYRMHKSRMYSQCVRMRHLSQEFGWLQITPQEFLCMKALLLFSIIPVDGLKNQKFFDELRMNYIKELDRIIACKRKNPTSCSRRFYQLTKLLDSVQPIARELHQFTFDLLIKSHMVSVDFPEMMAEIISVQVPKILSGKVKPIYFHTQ
Protocol: B. Androgen receptor of prostate of rats
Male Sprague-Dawley EPOS rats weighing of 160 to 200 g were castrated and 24 hours later, the animals were killed. The prostates were removed, weighed and homogenized at 0° C. with a polytetrafluoroethylene-glass Potter with a buffered TS solution (Tris, 10 mM, 0.25M Saccharose, HCl-pH of 7.4) using 1 g of tissue per 5 ml of TS. The homogenate was then ultracentrifuged at 105,000 g for 60 […] (T) of product P or 17α-methyl-Δ^4,9,11 -estratriene-17β-ol-3-one in the presence of increasing concentration (0-1,000×10^-9 M) of either cold P, cold testosterone or the test compound. The concentration of tied tritiated (B) was measured for each incubate by the technique of adsorption on carbon-dextran.
(§1) The calculation of the relative affinity of […] (ARL) was identical for all of the above receptor tests. One traced the following two curves: the percentage of tied tritiated hormone B/T as a function of the logarithm of the cold hormone concentration and B/T as a function of the logarithm of the concentration of the cold test product. One determined the line of the equation. [formula]
(§2) The intersection of the I50 line and the curves permits one to determine the concentrations of the cold hormone of the reference (CH) and the cold test compound (CX) which inhibit by 50% the tieing of tritiated hormone with the receptor. The relative affinity of tieing (ARL) of the test product was determined by the equation: [formula]

[2] = target: T2, Mineralcorticoidal receptor of kidneys of the rat (Rattus norvegicus, UniProt P22199); assay: Mineralcorticoidal receptor binding (displacement of tritiated aldosterone)
T2 construct: from tissue; host or cells: rat kidney, 105,000 g supernatant (adrenalectomized male Sprague-Dawley rats)
T2 sequence (P22199 1-981): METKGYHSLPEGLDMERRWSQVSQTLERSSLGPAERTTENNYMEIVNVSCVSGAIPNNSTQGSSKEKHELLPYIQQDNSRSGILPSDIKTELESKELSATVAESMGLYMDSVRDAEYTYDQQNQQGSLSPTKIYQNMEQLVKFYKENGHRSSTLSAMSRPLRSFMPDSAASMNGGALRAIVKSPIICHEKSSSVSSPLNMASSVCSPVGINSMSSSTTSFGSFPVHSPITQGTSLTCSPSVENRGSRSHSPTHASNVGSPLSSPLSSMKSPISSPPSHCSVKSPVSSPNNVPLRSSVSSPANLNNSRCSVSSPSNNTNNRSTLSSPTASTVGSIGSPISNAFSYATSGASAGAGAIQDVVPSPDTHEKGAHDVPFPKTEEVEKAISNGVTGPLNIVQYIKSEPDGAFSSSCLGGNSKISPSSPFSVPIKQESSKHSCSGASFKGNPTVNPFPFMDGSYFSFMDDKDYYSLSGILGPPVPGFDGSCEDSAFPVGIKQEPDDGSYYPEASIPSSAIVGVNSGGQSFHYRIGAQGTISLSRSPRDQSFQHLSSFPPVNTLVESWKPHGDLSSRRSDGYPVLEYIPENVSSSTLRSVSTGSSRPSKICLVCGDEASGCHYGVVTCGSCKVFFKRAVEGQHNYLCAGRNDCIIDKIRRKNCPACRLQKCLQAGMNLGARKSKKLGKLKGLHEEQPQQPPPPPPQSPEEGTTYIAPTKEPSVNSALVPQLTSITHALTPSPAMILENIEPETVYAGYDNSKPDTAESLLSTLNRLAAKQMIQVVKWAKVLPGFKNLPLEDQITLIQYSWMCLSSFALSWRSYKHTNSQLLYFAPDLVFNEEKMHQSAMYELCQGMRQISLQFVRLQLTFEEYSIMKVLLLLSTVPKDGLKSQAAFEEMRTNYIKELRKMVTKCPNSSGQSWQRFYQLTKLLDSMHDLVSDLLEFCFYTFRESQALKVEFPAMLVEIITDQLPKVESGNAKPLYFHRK
Protocol: A. Mineralcorticoidal receptor of kidneys of the rat
Male Sprague-Dawley EOPS rats weighing 140 to 160 g surrenalectomized 4 to 8 days previously were killed and their kidneys were perfused in situ with 50 ml of a buffer (10 mM of Tris 0.25M of Saccharose and sufficient hydrochloric acid for a pH of 7.4). The kidneys were then removed, decapsulated and homogenized at 0° C. with a polytetrafluoroethylene-glass Potter (1 g of tissue per 3 ml of buffer). The homogenate was centrifuged for 10 minutes at 800 g at 9° C.
After elimination of the fixation of tritiated aldosterone with glucocorticoid receptor, 21-methyl-Δ^1,4,6 -pregnatriene-20-yne-11β,17β-diol-3-one fixed only with the glucocorticoid receptor was added to the supernatant at a final concentration of 10^-6 M. The suprenatant was ultracentrifuged at 105,000 g for 60 minutes and 0° C. and aliquoits of the resulting surnageant were incubated at 0° C. with a constant concentration (T) of tritiated aldosterone in the presence of increasing concentrations (0-2500×10^-9 M) of cold aldosterone or the cold test product. After a time (t) of incubation, the concentration of tied tritiated aldosterone (B) was measured by the technique of adsoprtion on carbon dextran.
as §1, §2

[3] = second table, incubation 24 H at 0° C.

Compound	relative affinity of tieing (ARL), Androgen [1, 3]	relative affinity of tieing (ARL), Mineralocorticoid [2, 3]	affinity for androgen receptors (in words) [1]	other results
CC#C[C@]1(O)CC[C@H]2[C@@H]3CCC4=CC(=O)C(C#N)(C#N)CC4=C3[C@@H](c3ccc(N(C)C)cc3)C[C@@]21C [Example 9, 2,2-dicyano-11β-(4-dimethylaminophenyl)-17α-(prop-1-ynyl)-Δ^4,9-estradiene-17β-ol-3-one]				relative affinity of tieing (ARL), Androgen ([1]; incubation 1/2H at 0° C.): < 0,1; relative affinity of tieing (ARL), Androgen ([1]; incubation 24 H at 0° C.): < 0,1; relative affinity of tieing (ARL), Mineralocorticoid ([2]; incubation 1 H at 0° C.): < 0,1; relative affinity of tieing (ARL), Mineralocorticoid ([2]; incubation 24 H at 0° C.): < 0,1
CC#C[C@]1(O)CC[C@H]2[C@@H]3CCC4=CC(=O)C(C)(C)CC4=C3[C@@H](c3ccc(N(C)C)cc3)C[C@@]21C [Example 1, 2,2-dimethyl-11β-(4-dimethylaminophenyl)-17α-(prop-1-ynyl)-Δ^4,9-estradiene-17β-ol-3-one]				relative affinity of tieing (ARL), Mineralocorticoid ([2]; incubation 1 H at 0° C.): < 0,1; relative affinity of tieing (ARL), Mineralocorticoid ([2]; incubation 24 H at 0° C.): < 0,1
CN(C)c1ccc([C@H]2C[C@@]3(C)[C@@H](CC[C@@]3(O)C#C[Si](C)(C)C)[C@@H]3CCC4=CC(=O)CCC4=C32)cc1 [Example 44, 11β-[4-(N,N-dimethylamino)-phenyl]-21-trimethylsilyl-19-nor-17α-Δ^4,9-pregnadiene-20-yne-17β-ol-3-one]	4,6	0		
CN(C)c1ccc([C@H]2C[C@@]3(C)[C@@H](CC[C@@]3(O)C#CCl)[C@@H]3CCC4=CC(=O)CCC4=C32)cc1 [Example 25, 11β-[4-(N,N-dimethylamino)-phenyl]-21-chloro-19-nor-17α-Δ^4,9-pregnadiene-20-yne-17β-ol-3-one]	32	0	slightly moderate affinity	
C[C@]12C[C@H](c3ccc([N+](C)(C)[O-])cc3)[C@]34O[C@]35CCC(=O)C=C5CC[C@H]4[C@@H]1CC[C@@]2(O)C#CCl [Example 27, N-oxide of 11β-[4-(N,N-dimethylamino)-phenyl]-9α,10α-epoxy-21-chloro-19-nor-17α-Δ^4-pregnene-20-yne-17β-ol-3-one]	2,8	0		
C=CC[C@]1(O)CC[C@H]2[C@@H]3CCC4=CC(=O)CCC4=C3[C@@H](c3ccc(N(C)C)cc3)C[C@@]21C [Example 37, 11β-[4-(N,N-dimethylamino)-phenyl]-17α-(prop-2-enyl)-Δ^4,9-estradien-17β-ol-3-one]	8	0,3	slightly moderate affinity	
CC#C[C@]1(O)CC[C@H]2[C@@H]3CCC4=C(CCC(=O)C4)[C@H]3[C@@H](c3ccc(N(C)C)cc3)C[C@@]21C [Example 10, 11β-(4-dimethylaminophenyl)-17α-(prop-1-ynyl)-Δ^5(10) -estrene-17β-ol-3-one]				relative affinity of tieing (ARL), Mineralocorticoid ([2]; incubation 1 H at 0° C.): 1,5; relative affinity of tieing (ARL), Mineralocorticoid ([2]; incubation 24 H at 0° C.): < 0,1

The next lines start with results.

relative affinity of tieing (ARL), Androgen [1, 3]	relative affinity of tieing (ARL), Mineralocorticoid [2, 3]	affinity for androgen receptors (in words) [1]	Compound	other results
0			CN(C)c1ccc([C@H]2C[C@@]3(C)[C@@H](CC[C@@]3(O)C#Cc3ccccc3)[C@@H]3CCC4=CC(=O)CCC4=C32)cc1 [Example 29, 11β-[4-(N,N-dimethylamino)-phenyl]-21-phenyl-19-nor-17α-Δ^4,9-pregnadiene-20-yne-17β-ol-3-one]	
9,8	0		C[C@]12C[C@H](c3ccc([N+](C)(C)[O-])cc3)C3=C4CCC(=O)C=C4CC[C@H]3[C@@H]1CC[C@@]2(O)C#CCl [Example 26, N-oxide of 11β-[4-(N,N-dimethylamino)-phenyl]-21-chloro-19-nor-17α-Δ^4,9-pregnadiene-20-yne-17β-ol-3-one]	
14,7	0		C=C(C)C#C[C@]1(O)CC[C@H]2[C@@H]3CCC4=CC(=O)CCC4=C3[C@@H](c3ccc(N(C)C)cc3)C[C@@]21C [Example 23, 11β-[4-(N,N-dimethylamino)-phenyl]-23-methyl-19,21-dinor-17α-Δ^4,9,23-cholatriene-20-yn-17β-ol-3-one]	
2,2			CC#C[C@]1(O)CC[C@H]2[C@@H]3CCC4=CC(=O)CCC4=C3[C@@H](c3ccc([N+](C)(C)[O-])cc3)C[C@@]21C [Example 35, N-oxide of 11β-[4-(N,N-dimethylamino)-phenyl]-17α-(prop-1-ynyl)-Δ^4,9-estradiene-17β-ol-3-one]	
68	0	slightly moderate affinity	C#C[C@]1(O)CC[C@H]2[C@@H]3CCC4=CC(=O)CCC4=C3[C@@H](c3ccc(N(C)C)cc3)C[C@@]21C [Example 32, 11β-[4-(N,N-dimethylamino)-phenyl]-17α-ethynyl-Δ^4,9-estradiene-17β-ol-3-one]	
		slightly moderate affinity	CC#C[C@]1(O)CC[C@H]2[C@@H]3CCC4=CC(=O)[C@H](C)CC4=C3[C@@H](c3ccc(N(C)C)cc3)C[C@@]21C [Example 5, 2α-methyl-11β-(4-dimethylaminophenyl)-17α-(prop-1-ynyl)-Δ^4,9-estradiene-17β-ol-3-one]	
